Assays:
Assay in all cases: KiNativ kinome profiling in PANC-1 lysate
Format in all cases: binding
AAK1 = biological target: T1, AAK1 (Homo sapiens, UniProt Q2M2I8); settings: Lys2
T1 construct: endogenous in cells; host or cells: PANC-1 cell lysate
Outline: (§1)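 PANC-1 lysates were incubated with 5 μM inhibitor or DMSO, then labeled with a desthiobiotin-ATP acyl-phosphate probe that biotinylates conserved kinase lysines. Tryptic peptides were streptavidin-enriched and quantified by LC-MS/MS, reported as % change in MS signal from duplicate treated and duplicate control samples.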

AGK = biological target: T2, AGK (Homo sapiens, UniProt Q53H12); settings: ATP
T2 construct: endogenous in cells; host or cells: PANC-1 cell lysate
Outline: as §1

ARAF = biological target: T3, ARAF (Homo sapiens, UniProt P10398); settings: Lys2
T3 construct: endogenous in cells; host or cells: PANC-1 cell lysate
Outline: as §1

BRAF, BRAF V600E = biological target: T4, BRAF, BRAF V600E (Homo sapiens, UniProt P15056); settings: Lys2
T4 construct: endogenous in cells; host or cells: PANC-1 cell lysate
Outline: as §1

BRAF, RAF1 = settings: 5 µM; Activation Loop; IGDFGLATVKSR
Outline: as §1

CDK2 = biological target: T5, CDK2 (Homo sapiens, UniProt P24941)
T5 construct: endogenous in cells; host or cells: PANC-1 cell lysate
Outline: as §1

CaMKK1 = biological target: T6, CaMKK1 (Homo sapiens, UniProt Q8N5S9); settings: Lys2
T6 construct: endogenous in cells; host or cells: PANC-1 cell lysate
Outline: as §1

DCAMKL2 = biological target: T7, DCAMKL2 (Homo sapiens, UniProt Q8N568); settings: Lys2
T7 construct: endogenous in cells; host or cells: PANC-1 lysate
Outline: as §1

EGFR, EGFR-L858R = biological target: T8, EGFR, EGFR-L858R (Homo sapiens, UniProt P00533)
T8 construct: endogenous in cells; host or cells: PANC-1 lysate
Outline: as §1

EphB3 = biological target: T9, EphB3 (Homo sapiens, UniProt P54753); settings: ATP Loop
T9 construct: endogenous in cells; host or cells: PANC-1 lysate
Outline: as §1

IKKa = biological target: T10, IKKa (Homo sapiens, UniProt O15111); settings: Lys2
T10 construct: we opted to conduct a kinome screen (KiNativ) in PANC-1 cell lysates; endogenous in cells; host or cells: PANC-1 cell lysate
Outline: as §1

MAP3K1 = biological target: T11, MAP3K1 (Homo sapiens, UniProt Q13233)
T11 construct: endogenous in cells; host or cells: PANC-1 cell lysate
Outline: as §1

MAP3K3 = biological target: T12, MAP3K3 (Homo sapiens, UniProt Q99759); settings: Lys1
T12 construct: endogenous in cells; host or cells: PANC-1 cell lysate
Outline: as §1

MAP3K4 = biological target: T13, MAP3K4 (Homo sapiens, UniProt Q9Y6R4)
T13 construct: endogenous in cells; host or cells: PANC-1 cell lysate
Outline: as §1

MAP3K6 = biological target: T14, MAP3K6 (Homo sapiens, UniProt O95382)
T14 construct: endogenous in cells; host or cells: PANC-1 cell lysate
Outline: as §1

MASTL = biological target: T15, MASTL (Homo sapiens, UniProt Q96GX5)
T15 construct: endogenous in cells; host or cells: PANC-1
Outline: as §1

NLK = biological target: T16, NLK (Homo sapiens, UniProt Q9UBE8); settings: Lys2
T16 construct: endogenous in cells; host or cells: PANC-1 cell lysate
Outline: as §1

PIP5K3 = biological target: T17, PIP5K3 (Homo sapiens, UniProt Q9Y2I7); settings: ATP
T17 construct: endogenous in cells; host or cells: PANC-1 cell lysate
Outline: as §1

PITSLRE = PITSLRE (Homo sapiens, UniProt P21127); settings: Lys2
Outline: as §1

PKCa, PKCg = settings: 5 µM; Other; NLIPMDPNGLSDPYVKLK
Outline: as §1

[1] = tested on: RSK1 domain1, RSK2 domain1, RSK3 domain1; settings: 5 µM; Lys2; DLKPENILLDEEGHIK
Outline: as §1

SGK3 = biological target: T18, SGK3 (Homo sapiens, UniProt Q96BR1); settings: Lys1
T18 construct: endogenous in cells; host or cells: PANC-1 cell lysate
Outline: as §1

TAK1 = biological target: T19, TAK1 (Homo sapiens, UniProt O43318); settings: Lys2
T19 construct: endogenous in cells; host or cells: PANC-1 cell lysate
Outline: as §1

TGFbR2 = biological target: T20, TGFbR2 (Homo sapiens, UniProt P37173); settings: Lys2
T20 construct: endogenous in cells; host or cells: PANC-1 cell lysate
Outline: as §1

TLK1 = biological target: T21, TLK1 (Homo sapiens, UniProt Q9UKI8); settings: Lys2
T21 construct: endogenous in cells; host or cells: PANC-1 cell lysate
Outline: as §1

Wnk1, Wnk2, Wnk3 = settings: 5 µM; Lys2; DLKCDNIFITGPTGSVK
Outline: as §1

T11 sequence (Q13233 whole entry): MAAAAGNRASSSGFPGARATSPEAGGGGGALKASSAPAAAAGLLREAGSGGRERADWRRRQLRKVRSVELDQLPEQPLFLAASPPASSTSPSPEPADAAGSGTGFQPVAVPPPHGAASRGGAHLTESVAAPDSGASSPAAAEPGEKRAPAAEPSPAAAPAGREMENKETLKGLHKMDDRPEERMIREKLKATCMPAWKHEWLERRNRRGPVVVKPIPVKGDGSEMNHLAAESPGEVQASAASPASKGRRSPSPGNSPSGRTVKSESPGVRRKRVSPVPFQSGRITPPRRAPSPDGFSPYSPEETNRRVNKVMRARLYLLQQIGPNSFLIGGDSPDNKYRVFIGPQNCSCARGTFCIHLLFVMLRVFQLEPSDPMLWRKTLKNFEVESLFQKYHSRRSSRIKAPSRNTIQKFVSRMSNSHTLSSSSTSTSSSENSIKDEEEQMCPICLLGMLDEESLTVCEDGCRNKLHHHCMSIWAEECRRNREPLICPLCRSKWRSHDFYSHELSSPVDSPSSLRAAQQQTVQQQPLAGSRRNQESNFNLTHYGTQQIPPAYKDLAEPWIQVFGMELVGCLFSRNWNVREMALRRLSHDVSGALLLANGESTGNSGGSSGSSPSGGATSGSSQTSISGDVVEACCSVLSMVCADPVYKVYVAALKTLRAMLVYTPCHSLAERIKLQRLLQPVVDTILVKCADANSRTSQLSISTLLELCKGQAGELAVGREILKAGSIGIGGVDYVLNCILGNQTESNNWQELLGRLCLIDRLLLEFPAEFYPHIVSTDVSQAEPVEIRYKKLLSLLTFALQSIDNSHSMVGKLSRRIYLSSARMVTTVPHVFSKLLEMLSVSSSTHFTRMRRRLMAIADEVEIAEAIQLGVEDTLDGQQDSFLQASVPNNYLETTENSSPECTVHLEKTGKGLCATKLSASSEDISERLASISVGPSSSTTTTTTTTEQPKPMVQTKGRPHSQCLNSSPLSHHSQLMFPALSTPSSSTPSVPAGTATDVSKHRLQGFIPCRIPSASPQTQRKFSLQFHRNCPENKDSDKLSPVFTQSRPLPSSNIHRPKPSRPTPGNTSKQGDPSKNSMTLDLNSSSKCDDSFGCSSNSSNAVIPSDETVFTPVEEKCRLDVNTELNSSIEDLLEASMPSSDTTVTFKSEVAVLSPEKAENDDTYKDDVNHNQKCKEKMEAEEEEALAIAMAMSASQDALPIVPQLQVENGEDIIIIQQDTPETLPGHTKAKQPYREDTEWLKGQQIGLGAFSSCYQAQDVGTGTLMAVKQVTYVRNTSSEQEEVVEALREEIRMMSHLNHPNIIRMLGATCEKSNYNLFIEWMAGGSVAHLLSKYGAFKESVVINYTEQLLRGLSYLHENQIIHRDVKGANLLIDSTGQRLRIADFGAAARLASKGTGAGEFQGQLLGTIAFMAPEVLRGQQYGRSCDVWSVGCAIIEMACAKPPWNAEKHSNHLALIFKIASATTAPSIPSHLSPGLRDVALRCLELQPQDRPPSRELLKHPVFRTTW
T8 sequence (P00533 25-1210 L858R): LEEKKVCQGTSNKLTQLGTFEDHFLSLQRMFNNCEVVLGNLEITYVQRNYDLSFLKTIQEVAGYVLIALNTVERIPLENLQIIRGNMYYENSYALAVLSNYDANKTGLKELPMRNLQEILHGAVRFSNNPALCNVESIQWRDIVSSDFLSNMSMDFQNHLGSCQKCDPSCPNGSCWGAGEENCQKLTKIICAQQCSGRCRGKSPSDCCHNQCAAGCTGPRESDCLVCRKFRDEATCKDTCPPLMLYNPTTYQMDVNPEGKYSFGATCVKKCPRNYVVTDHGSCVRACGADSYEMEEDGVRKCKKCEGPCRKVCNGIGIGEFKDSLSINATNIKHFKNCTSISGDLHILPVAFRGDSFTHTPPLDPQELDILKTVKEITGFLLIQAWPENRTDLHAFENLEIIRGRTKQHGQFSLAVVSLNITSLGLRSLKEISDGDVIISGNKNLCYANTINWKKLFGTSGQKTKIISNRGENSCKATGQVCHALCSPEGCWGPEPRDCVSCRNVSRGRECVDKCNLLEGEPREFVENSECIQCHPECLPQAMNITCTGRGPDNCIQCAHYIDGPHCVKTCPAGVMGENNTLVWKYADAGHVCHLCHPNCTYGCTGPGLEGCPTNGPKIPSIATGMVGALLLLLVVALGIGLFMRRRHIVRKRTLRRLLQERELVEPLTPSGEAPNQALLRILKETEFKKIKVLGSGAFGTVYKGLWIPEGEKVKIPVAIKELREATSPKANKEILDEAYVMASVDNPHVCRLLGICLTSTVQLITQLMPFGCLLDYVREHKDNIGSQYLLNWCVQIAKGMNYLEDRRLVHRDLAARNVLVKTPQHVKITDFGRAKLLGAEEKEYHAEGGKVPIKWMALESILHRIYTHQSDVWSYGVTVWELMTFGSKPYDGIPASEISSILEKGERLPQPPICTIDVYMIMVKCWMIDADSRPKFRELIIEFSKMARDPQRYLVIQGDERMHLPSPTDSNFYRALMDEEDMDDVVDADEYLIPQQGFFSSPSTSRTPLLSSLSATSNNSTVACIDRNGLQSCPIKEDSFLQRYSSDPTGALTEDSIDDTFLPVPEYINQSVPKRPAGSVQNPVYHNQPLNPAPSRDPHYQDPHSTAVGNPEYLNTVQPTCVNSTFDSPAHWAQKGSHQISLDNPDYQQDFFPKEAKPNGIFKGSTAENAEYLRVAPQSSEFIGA
T15 sequence (Q96GX5 whole entry): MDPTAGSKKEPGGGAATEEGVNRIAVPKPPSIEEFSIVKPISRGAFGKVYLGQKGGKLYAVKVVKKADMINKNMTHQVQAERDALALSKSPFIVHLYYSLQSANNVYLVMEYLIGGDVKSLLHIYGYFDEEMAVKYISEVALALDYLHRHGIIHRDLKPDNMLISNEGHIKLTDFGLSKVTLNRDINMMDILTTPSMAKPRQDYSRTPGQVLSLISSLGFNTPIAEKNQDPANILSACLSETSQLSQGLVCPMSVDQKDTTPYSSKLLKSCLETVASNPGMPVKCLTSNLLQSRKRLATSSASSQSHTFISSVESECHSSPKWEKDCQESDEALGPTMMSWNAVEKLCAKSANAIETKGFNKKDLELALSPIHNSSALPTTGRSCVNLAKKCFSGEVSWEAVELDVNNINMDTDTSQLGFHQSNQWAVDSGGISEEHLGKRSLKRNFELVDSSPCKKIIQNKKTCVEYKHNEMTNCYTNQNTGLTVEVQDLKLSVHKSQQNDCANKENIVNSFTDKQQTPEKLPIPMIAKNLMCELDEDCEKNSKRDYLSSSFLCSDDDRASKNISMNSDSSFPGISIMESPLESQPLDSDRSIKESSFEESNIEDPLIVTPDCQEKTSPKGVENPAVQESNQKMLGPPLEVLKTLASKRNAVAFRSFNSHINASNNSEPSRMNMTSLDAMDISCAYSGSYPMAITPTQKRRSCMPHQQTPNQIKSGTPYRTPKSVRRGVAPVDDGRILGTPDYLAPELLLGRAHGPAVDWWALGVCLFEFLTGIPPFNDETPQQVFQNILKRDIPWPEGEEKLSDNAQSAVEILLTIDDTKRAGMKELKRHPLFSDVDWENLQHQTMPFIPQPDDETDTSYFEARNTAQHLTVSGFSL
T14 sequence (O95382 whole entry): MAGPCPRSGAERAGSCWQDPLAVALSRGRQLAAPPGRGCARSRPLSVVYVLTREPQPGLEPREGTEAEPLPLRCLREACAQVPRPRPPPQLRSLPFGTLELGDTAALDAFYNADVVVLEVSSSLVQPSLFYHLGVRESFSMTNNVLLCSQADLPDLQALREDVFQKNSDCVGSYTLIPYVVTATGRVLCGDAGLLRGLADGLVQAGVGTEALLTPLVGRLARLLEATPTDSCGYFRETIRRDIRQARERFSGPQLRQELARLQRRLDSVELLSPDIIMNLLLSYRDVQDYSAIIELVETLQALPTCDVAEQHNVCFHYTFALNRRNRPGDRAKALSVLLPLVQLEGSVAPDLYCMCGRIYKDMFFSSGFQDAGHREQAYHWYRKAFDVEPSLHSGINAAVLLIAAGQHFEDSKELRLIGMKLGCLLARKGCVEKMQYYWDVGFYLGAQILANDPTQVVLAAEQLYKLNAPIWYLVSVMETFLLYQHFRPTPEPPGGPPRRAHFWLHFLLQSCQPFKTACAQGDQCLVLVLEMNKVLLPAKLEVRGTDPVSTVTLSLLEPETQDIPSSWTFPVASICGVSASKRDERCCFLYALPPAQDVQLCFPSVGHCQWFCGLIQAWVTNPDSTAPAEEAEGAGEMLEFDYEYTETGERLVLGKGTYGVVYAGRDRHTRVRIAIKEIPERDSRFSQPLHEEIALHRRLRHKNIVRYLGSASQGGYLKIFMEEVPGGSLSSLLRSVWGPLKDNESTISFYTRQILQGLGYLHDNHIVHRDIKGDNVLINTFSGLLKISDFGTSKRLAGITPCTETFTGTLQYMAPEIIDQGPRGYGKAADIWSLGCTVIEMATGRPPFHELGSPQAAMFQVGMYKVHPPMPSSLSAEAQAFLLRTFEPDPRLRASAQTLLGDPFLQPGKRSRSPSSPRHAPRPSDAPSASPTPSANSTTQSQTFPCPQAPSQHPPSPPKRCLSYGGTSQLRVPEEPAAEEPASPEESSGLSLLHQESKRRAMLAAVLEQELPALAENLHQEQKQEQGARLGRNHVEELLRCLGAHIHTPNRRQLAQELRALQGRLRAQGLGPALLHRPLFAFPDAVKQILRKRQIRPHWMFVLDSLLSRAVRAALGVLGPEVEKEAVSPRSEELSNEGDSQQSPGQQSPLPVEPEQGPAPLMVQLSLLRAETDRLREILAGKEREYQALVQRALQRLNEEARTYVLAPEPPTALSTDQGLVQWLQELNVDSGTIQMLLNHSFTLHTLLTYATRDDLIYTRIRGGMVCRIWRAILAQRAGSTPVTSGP

`Cn1cc(-c2cnc3ccc(NC(=O)Nc4ccc(F)c(C(F)(F)F)c4)cc3n2)cn1` [51-106, 1-(4-Fluoro-3-(trifluoromethyl)phenyl)-3-(3-(1-methyl-1H-pyrazol-4-yl)quinoxalin-6-yl)urea] showed an inhibition at 5 µM (AAK1) of 3.5%, an inhibition at 5 µM (AGK) of at most 0% and an inhibition at 5 µM (ARAF) of at most 0%. The inhibition at 5 µM (BRAF, BRAF V600E) was 0.5%, the “% Inhibition” value (BRAF, RAF1) was 12.7% and the “% Inhibition” value (CDK2; 5 µM, Lys1, LTGEVVALKK) was 12%. The inhibition at 5 µM (CDK2; Lys1, LTGEVVALKK) was 12.3%, the inhibition at 5 µM (CDK2; Lys2, DLKPQNLLINTEGAIK) was at most 0% and the inhibition at 5 µM (CaMKK1) was at most 0%. The inhibition at 5 µM (DCAMKL2) was at most 0%, the inhibition at 5 µM (EGFR, EGFR-L858R; ATP Loop, LLGAEEKEYHAEGGKVPIK) was at most 0% and the inhibition at 5 µM (EGFR, EGFR-L858R; Lys1, IPVAIKELR) was 5.5%. The inhibition at 5 µM (EphB3) was 1.6%, the inhibition at 5 µM (IKKa) was at most 0% and the “MAP3K1 inhibition compared to any other kinase in the panel” value (MAP3K1; 5 μM, 328 quantified kinases) was 2.5 fold. For the same compound, the “% Inhibition” value (MAP3K1; 5 µM, Lys2, DVKGANLLIDSTGQR) was 78%, the inhibition at 5 µM (MAP3K1; 5 µM, Lys2, DVKGANLLIDSTGQR) was 78.1% and the inhibition at 5 µM (MAP3K3) was 11.4%. For the same compound, the inhibition at 5 µM (MAP3K4; Lys1, VYTCISVDTGELMAMKEIR) was 8.6%, the inhibition at 5 µM (MAP3K4; Lys2, DIKGANIFLTSSGLIK) was 7.1% and the inhibition at 5 µM (MAP3K6; 5 µM, Lys2, […]) was at most 0%. For the same compound, the “inhibition of MAP3K6 (in words)” value (MAP3K6; 5 μM, PANC-1 lysate) was “did not inhibit”, the inhibition at 5 µM (MASTL; ATP Loop, GAFGKVYLGQK) was 8.6% and the inhibition at 5 µM (MASTL; Lys1, LYAVKVVK) was at most 0%. The inhibition at 5 µM (NLK) was 5.9%, the inhibition at 5 µM (PIP5K3) was at most 0% and the inhibition at 5 µM (PITSLRE) was at most 0%. The “% Inhibition” value (PKCa, PKCg) was “NB (NB = No Binding (≤ 0))”, the “% Inhibition” value [1] was “NB (NB = No Binding (≤ 0))” and the inhibition at 5 µM (SGK3) was at most 0%. The inhibition at 5 µM (TAK1) was at most 0%, the inhibition at 5 µM (TGFbR2) was 8.9% and the inhibition at 5 µM (TLK1) was 6.2%. For the same compound, the “% Inhibition” value (Wnk1, Wnk2, Wnk3) was 10.6%.

Source: PMC12073402, “A Selective MAP3K1 Inhibitor Facilitates Discovery of NPM1 as a Member of the Network” (Molecules, 2025)
